Patent publication US9549926B2, “Compositions and methods of treating pulmonary hypertension” (Gilead Sciences, Inc., priority 2010, dated 2017)
Read-outs that look alike come from different tables or passages of the source.

Assays:
[1] = Free plasma concentration in the rat PAH study; assay type: in vivo; conditions: Sprague-Dawley, read-out: free or unbounded plasma concentration
Method: Rats were dosed with vehicle (0.5% hydroxypropyl methylcellulose (HPMC), 0.2% Tween 80, and 0.9% benzyl alcohol in water), AMB or TAD (quaque die) beginning the day they were placed in chambers. Plasma was collected when animals were terminated.
The free or unbounded plasma concentration for 10 mpk AMB dosing was about 104 nM in both cases. The free or unbounded plasma concentrations of TAD was about 24 nM when administered separately, or about 26 nM when administered with AMB, whether 1 mpk or 10 mpk.

[2] = test system: hypoxia-induced mean pulmonary arterial pressure (mPAP) in male SD rats; test: Hypoxia-induced pulmonary arterial hypertension (PAH) animal model; assay type: in vivo; conditions: 3 wks hypoxia, rat
Method: Male SD Rats (225-250 g) were housed in chambers under normoxic (sea level) or hypoxic (10% oxygen) conditions for 3 weeks. Rats were dosed with vehicle (0.5% hydroxypropyl methylcellulose (HPMC), 0.2% Tween 80, and 0.9% benzyl alcohol in water), AMB or TAD (quaque die) beginning the day they were placed in chambers. Plasma was collected when animals were terminated. [table]

[3] = test system: ET-1-induced contraction of endothelium-denuded aortic rings; test: ET-1-induced contraction of endothelium-denuded aortic rings; assay type: cell-based, rat; conditions: 10 nM ambrisentan, n=4
Method: (§1) Intrapulmonary arteries (200-500 μm) and aortas were isolated from Sprague Dawley rats (300-320 g) and cut into 1-2 mm rings. Rings were mounted in a myograph and constricted with a submaximal concentration (8 nM) of ET-1. Ambrisentan, Bosentan, Macitentan and Tadalafil alone and in combination were evaluated in ET-constricted rings.

ETA receptor = biological target: T1, ETA receptor (Homo sapiens, UniProt P25101); conditions: read-out: affinity for the ETA receptor; cited from earlier work
T1 sequence (P25101 21-427): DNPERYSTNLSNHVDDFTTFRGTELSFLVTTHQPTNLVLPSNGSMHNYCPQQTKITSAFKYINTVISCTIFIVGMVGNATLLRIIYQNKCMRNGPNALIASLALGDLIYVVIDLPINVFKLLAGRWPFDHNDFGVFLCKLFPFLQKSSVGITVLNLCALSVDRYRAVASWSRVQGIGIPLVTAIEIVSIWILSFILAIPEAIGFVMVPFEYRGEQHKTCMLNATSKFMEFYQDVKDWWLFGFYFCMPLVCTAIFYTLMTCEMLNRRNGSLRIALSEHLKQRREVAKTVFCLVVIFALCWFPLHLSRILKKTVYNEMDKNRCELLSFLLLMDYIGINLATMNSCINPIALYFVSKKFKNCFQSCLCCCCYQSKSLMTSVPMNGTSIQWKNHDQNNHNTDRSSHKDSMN

[4] = test system: ET-1-induced contraction of rat intact thoracic aortic rings; test: Ex-vivo vascular function assay: relaxation of ET-1-contracted intact rat thoracic aortic rings; assay type: cell-based; conditions: for relaxation of intact thoracic aortic rings in the presence of ET-1: Example 1, FIG. 1, 8 nM ET-1, 10 nM ambrisentan, 30 nM tadalafil, alone or in combination, n=3; for IC50: Rattus norvegicus, read-out: IC50 to relax ET-1 constricted aortic rings
Method: The combination of both 10 nM ambrisentan and 30 nM tadalafil relaxed the ET-1-induced contraction of the intact thoracic aortic rings by 81±7% (FIG. 1, n=3; P<0.01 vs. mono-administration of ambrisentan or tadalafil). […] Intrapulmonary arteries (200-500 μm) and aortas were isolated from Sprague Dawley rats (300-320 g) and cut into 1-2 mm rings. Rings were mounted in a myograph and constricted with a submaximal concentration (8 nM) of ET-1. Ambrisentan, Bosentan, Macitentan and Tadalafil alone and in combination were evaluated in ET-constricted rings.

[5] = test system: ET-1-induced contraction of endothelium-denuded pulmonary arterial rings; test: ET-1-induced contraction of endothelium-denuded pulmonary arterial rings; assay type: cell-based, rat; conditions: FIG. 5, 10 nM ambrisentan, 30 nM tadalafil, n=4
Method: as §1

[6] = test system: ET-1-induced contraction of rat intact intrapulmonary arterial rings; test: Ex-vivo vascular function assay: relaxation of ET-1-contracted intact rat intrapulmonary arterial rings; assay type: cell-based; conditions: 8 nM ET-1, 10 nM ambrisentan, 30 nM tadalafil, alone or in combination, mean±SEM
Method: The selective type-A endothelin receptor antagonist, ambrisentan ([…]®), and the phosphodiesterase type 5 inhibitor, tadalafil ([…]®), are currently used to treat pulmonary arterial hypertension. Isolated rat intact intrapulmonary arterial rings contracted with 8 nM endothelin-1 (ET-1) were relaxed by 10 nM ambrisentan (from Gilead Sciences, Inc.) and 30 nM tadalafil (from Sequoia Research Products Ltd. Pangbourne, UK) by 30±13% (mean±SEM, n=3) and 12±5% (n=3), respectively, whereas both drugs in combination relaxed the intact intrapulmonary arterial rings by […] (FIG. 1, n=3, P<0.01 vs. mono-administration of ambrisentan or tadalafil). Intrapulmonary arteries (200-500 μm) and aortas were isolated from Sprague Dawley rats (300-320 g) and cut into 1-2 mm rings. Rings were mounted in a myograph and constricted with a submaximal concentration (8 nM) of ET-1. Ambrisentan, Bosentan, Macitentan and Tadalafil alone and in combination were evaluated in ET-constricted rings. Isolated rat intact intrapulmonary arterial rings contracted with 8 nM endothelin-1 (ET-1) were relaxed by 10 nM ambrisentan and 30 nM tadalafil by 29±1% (mean±SEM, n=4) and 22±2% (n=4), respectively, whereas both drugs in combination relaxed the intact intrapulmonary arterial rings by 85±3% (FIG. 2, n=4, P<0.01 vs. mono-administration of ambrisentan or tadalafil).

[7] = Example 2, FIG. 2, 100 nM bosentan, 30 nM macitentan

Structure (SMILES): COC(c1ccccc1)(c1ccccc1)[C@H](Oc1nc(C)cc(C)n1)C(=O)O [ambrisentan, (2S)-2-[(4,6-dimethylpyrimidin-2-yl)oxy]-3-methoxy-3,3-diphenylpropanoic acid]
- concentration at 3 weeks ([1]; 1 mpk, AMB 1 mpk, administered separately): ~17 nM
- concentration at 3 weeks ([1]; AMB 1 mpk, administered along with TAD): ~13 nM
- concentration at 3 weeks ([1]; AMB 10 mpk, separately or with TAD (both cases)): ~104 nM
- inhibition of PAP (mPAP±SEM) ([2]; 1 mpk AMB once daily): 28.4±1.1%
- inhibition of PAP (mPAP±SEM) ([2]; 10 mpk AMB once daily): 42.1±2.4%
- reduction of contraction induced by ET-1 [3]: 26±7%
- Ki (ETA receptor): ~0.012 nM
- relaxation of intact thoracic aortic rings in the presence of ET-1 [4]: 32±3%
- reduction of contraction induced by ET-1 [5]: 23±4%
- relaxation of intact intrapulmonary arterial rings contracted with ET-1 ([6]; Example 1, FIG. 1, n=3): 30±13%
- relaxation of intact intrapulmonary arterial rings contracted with ET-1 [6, 7]: 29±1%

Structure (SMILES): COc1ccccc1Oc1c(NS(=O)(=O)c2ccc(C(C)(C)C)cc2)nc(-c2ncccn2)nc1OCCO [bosentan]
- relaxation of intact intrapulmonary arterial rings contracted with ET-1 [6, 7]: 25±1%

Structure (SMILES): CN1CC(=O)N2[C@H](c3ccc4c(c3)OCO4)c3[nH]c4ccccc4c3C[C@@H]2C1=O [tadalafil, (6R-trans)-6-(1,3-benzodioxol-5-yl)-2,3,6,7,12,12a-hexahydro-2-methyl-pyrazino [1′, 2′:1,6] pyrido[3,4-b]indole-1,4-dione]
- concentration at 3 weeks ([1]; 10 mpk, TAD (10 mpk), administered separately): ~24 nM
- concentration at 3 weeks ([1]; TAD (10 mpk), administered with AMB, 1 mpk or 10 mpk): ~26 nM
- inhibition of PAP (mPAP±SEM) ([2]; 10 mpk TAD once daily): 23.2±1.3%
- reduction of contraction induced by ET-1 [3]: failed to inhibit contraction
- relaxation of intact thoracic aortic rings in the presence of ET-1 [4]: 16±4%
- IC50 ([4]; in the presence of 10 nM ambrisentan): 16 nM
- IC50 ([4]; tadalafil alone): 79 nM
- reduction of contraction induced by ET-1 [5]: failed to inhibit contraction
- relaxation of intact intrapulmonary arterial rings contracted with ET-1 ([6]; Example 1, FIG. 1, n=3): 12±5%
- relaxation of intact intrapulmonary arterial rings contracted with ET-1 [6, 7]: 22±2%

Structure (SMILES): CCCNS(=O)(=O)Nc1ncnc(OCCOc2ncc(Br)cn2)c1-c1ccc(Br)cc1 [macitentan]
- relaxation of intact intrapulmonary arterial rings contracted with ET-1 [6, 7]: 31±2%
